In patent US9169247B2, “Tetrahydro-beta-carboline derivatives, synthesis and use thereof” (Southern Research Institute, priority 2009, dated 2015):
Where two headings read alike, the source gives them in different places.

Key:
[1] = test system: human MDA-MB-231 breast tumor cells; test: Growth assay (Cell Titer Glo); assay type: cell-based; settings: for inhibition at 10 µM / % Growth Inhibition at 10 μM: mean +/− spread
Experimental: (§1) All human tumor cell lines were obtained from ATCC and grown under standard cell culture conditions at 37° C. in a humidified atmosphere with 5% CO2. Cells were grown in RPMI 1640 supplemented with 5% fetal bovine serum 2 mM glutamine, 100 units/ml penicillin, 100 units/ml streptomycin, and 0.25 μg/ml amphotericin. Cells were harvested at 70 to 90% confluence with trypsin/EDTA and used immediately Cell count and viability was determined by Trypan blue staining followed by hemocytometry. Only cultures displaying >95% cell viability were used for experiments. HMEC were grown according to the specifications from the supplier (Lonzo).
(§2) Tissue culture microtiter 96-well plates were seeded with cells at a density of 5,000 cells/well. The plates were incubated for 18-24 hours prior to any treatment. All test compounds were solubilized in 100% DMSO and diluted with media to obtain a final DMSO concentration of 0.1%. Cell viability was measured 72 hours after treatment by the Cell Titer Glo Assay (Promega), which is a luminescent assay that is an indicator of live cells as a function of metabolic activity and ATP content. The assay was performed according to manufacturer's specifications. Luminescence was measured by a Perkin Elmer Victor® multi-label plate reader.^6
(§3) Dose response curves were analyzed using Prism™ 4 software (GraphPad) to calculate IC50 values using a four parameter logistic equation.

HT-29 = test: Growth assay (Cell Titer Glo); assay type: cell-based, human; settings: HT-29 colon
Experimental: Compounds 2a-h were tested for tumor cell growth inhibitory activity using the human breast MDA-MB-231 and ZR75-1 tumor cell lines and the colon CACO-2, SW-1116, and HT-29 tumor cell lines.
as §1, §2, §3

[2] = Homo sapiens, MDA-MB-231, 72 h, MDA-MB-231 breast, 72 h, Tables 3-5, read-out: IC50 value, μM, growth
[3] = Homo sapiens, MDA-MB-231, MDA-MB-231
[4] = Homo sapiens, MDA-MB-231, MDA-MB-231, Tables 1 and 2, read-out: Growth Inhibition IC50, μM (95% CI)
[5] = MDA-MB-231, Tables 1 and 2, read-out: Growth Inhibition IC50, μM (95% CI)
[6] = MDA-MB-231 breast, 72 h, Tables 3-5, read-out: IC50 value, μM, growth

SMILES	melting point [°C]	inhibition at 10 µM [1, 3] [%]	further results
COC(=O)[C@H]1Cc2c([nH]c3ccccc23)[C@@H](c2ccc(Cl)c(Cl)c2)N1 [Compound 1m, (1R,3R) Methyl-1-(3,4-dichlorophenyl)-2,3,4,9-tetrahydro-1H-β-carboline-3-carboxylate]	90 to 92	43	–
COC(=O)[C@H]1Cc2c([nH]c3ccccc23)[C@H](c2ccc(Cl)c(Cl)c2)N1 [Compound 1n, (1S,3R) Methyl-1-(3,4-dichlorophenyl)-2,3,4,9-tetrahydro-1H-β-carboline-3-carboxylate]	140 to 143	100	IC50 [1, 4]: 4.62 µM
COC(=O)[C@@H]1Cc2c([nH]c3ccccc23)[C@@H](c2cc(OC)ccc2OC)N1 [Compound 1h, (1R,3S) Methyl 1-(2,5-dimethoxyphenyl)-2,3,4,9-tetrahydro-1H-β-carboline-3-carboxylate]	138 to 141	–	–
COC(=O)[C@@H]1Cc2c([nH]c3ccccc23)[C@H](c2cc(OC)ccc2OC)N1 [Compound 1g, (1S,3S) Methyl 1-(2,5-dimethoxyphenyl)-2,3,4,9-tetrahydro-1H-β-carboline-3-carboxylate]	100 to 102	–	–
COC(=O)[C@@H]1Cc2c([nH]c3ccccc23)[C@H](c2ccc(Cl)cc2Cl)N1 [Compound 1k, (1S,3S)Methyl 1-(2,4-dichlorophenyl)-2,3,4,9-tetrahydro-1H-β-carboline-3-carboxylate]	90 to 92	50	–
COC(=O)[C@H]1Cc2c([nH]c3ccccc23)[C@@H](c2ccc(Cl)cc2Cl)N1 [Compound 1i, (1R,3R) Methyl-1-(2,4-dichlorophenyl)-2,3,4,9-tetrahydro-1H-β-carboline-3-carboxylate]	88 to 92	29	–
COC(=O)[C@H]1Cc2c([nH]c3ccccc23)[C@@H](c2cc(OC)ccc2OC)N1 [Compound 1e, (1R,3R) Methyl 1-(2,5-dimethoxyphenyl)-2,3,4,9-tetrahydro-1H-β-carboline-3-carboxylate]	102 to 105	–	–
COC(=O)[C@@H]1Cc2c([nH]c3ccccc23)[C@@H](c2ccc(Cl)c(Cl)c2)N1 [Compound 1p, (1R,3S)Methyl-1-(3,4-dichlorophenyl)-2,3,4,9-tetrahydro-1H-β-carboline-3-carboxylate]	139 to 142	48	–
COC(=O)[C@@H]1Cc2c([nH]c3ccccc23)[C@H](c2ccc(Cl)c(Cl)c2)N1 [Compound 1o, (1S,3S) Methyl-1-(3,4-dichlorophenyl)-2,3,4,9-tetrahydro-1H-β-carboline-3-carboxylate]	88 to 91	62	IC50 [1, 4]: 6.98 µM
COC(=O)[C@H]1Cc2c([nH]c3ccccc23)[C@H](c2ccc(Cl)cc2Cl)N1 [Compound 1j, (1S,3R) Methyl 1-(2,4-dichlorophenyl)-2,3,4,9-tetrahydro-1H-β-carboline-3-carboxylate]	130 to 133	78	IC50 [1, 4]: 6.73 µM
COC(=O)[C@@H]1Cc2c([nH]c3ccccc23)[C@@H](c2ccc(Cl)cc2Cl)N1 [Compound 1l, (1R,3S)Methyl 1-(2,4-dichlorophenyl)-2,3,4,9-tetrahydro-1H-β-carboline-3-carboxylate]	128 to 130	28	–
COC(=O)[C@H]1Cc2c([nH]c3ccccc23)[C@H](c2cc(OC)ccc2OC)N1 [Compound 1f, (1S,3R) Methyl 1-(2,5-dimethoxyphenyl)-2,3,4,9-tetrahydro-1H-β-carboline-3-carboxylate]	139 to 142	–	–

Further lines, with some results ahead:

melting point [°C]	SMILES	inhibition at 10 µM [1, 3] [%]	further results
215 to 218	COC(=O)[C@H]1Cc2c([nH]c3ccccc23)[C@@H](c2ccc(Cl)cc2Cl)N1C(=O)CCl [Compound 2i, (1R,3R) Methyl 1-(2,4-dichlorophenyl)-2-(2-chloroacetyl)-2,3,4,9-tetrahydro-1H-β-carboline-3-carboxylate]	98	IC50 [1, 2]: 0.56 µM; IC50 [1, 4]: 0.56 µM
101 to 103	COC(=O)[C@@H]1Cc2c([nH]c3ccccc23)[C@H](c2c(Cl)cccc2Cl)N1 [Compound 1r, (1S,3S) Methyl 1-(2,6-dichlorophenyl)-2,3,4,9-tetrahydro-1H-β-carboline-3-carboxylate]	52	–
102 to 105	COC(=O)[C@H]1Cc2c([nH]c3ccccc23)[C@@H](c2c(Cl)cccc2Cl)N1 [Compound 1q, (1R,3R) Methyl 1-(2,6-dichlorophenyl)-2,3,4,9-tetrahydro-1H-β-carboline-3 carboxylate]	–	–
163 to 165	COC(=O)[C@H]1Cc2c([nH]c3ccccc23)[C@H](c2ccc(Cl)c(Cl)c2)N1C(=O)CCl [Compound 2n, (1S,3R) Methyl 1-(3,4dichlorophenyl)-2-(2-chloroacetyl)-2,3,4,9-tetrahydro-1H-β-carboline-3-carboxylate]	50	IC50 [1, 2]: 1.2 µM; IC50 (HT-29; Homo sapiens, HT-29, 72 h): > 10 µM
153 to 156	COC(=O)C1Cc2c([nH]c3ccccc23)C(c2c(Cl)cccc2Cl)N1C(=O)CCl [Compound 2r, (1S,3S) Methyl 1-(2,6-dichlorophenyl)-2-(2-chloroacetyl)-2,3,4,9-tetrahydro-1H-β-carboline-3-carboxyl]	–	% Growth Inhibition at 10 μM ([1]; MDA-MB-231): 24 +/− 0.54%; IC50 [1, 5]: 0.42 µM; IC50 [1, 6]: 0.44 µM; IC50 (HT-29; 72 h): 1 µM
147 to 150	COC(=O)C1Cc2c([nH]c3ccccc23)C(c2c(Cl)cccc2Cl)N1C(=O)CCl [Compound 2q, (1R,3R) Methyl 1-(2,6-dichlorophenyl)-2-(2-chloroacetyl)-2,3,4,9-tetrahydro 1H-β-carboline-3-carboxylate]	–	% Growth Inhibition at 10 μM ([1]; MDA-MB-231): 99 +/− 0.01%; IC50 [1, 5]: 0.05 µM; IC50 [1, 6]: 0.04 µM; IC50 (HT-29; Homo sapiens, HT-29, 72 h): 1.5 µM
215 to 218	COC(=O)[C@@H]1Cc2c([nH]c3ccccc23)[C@H](c2ccc(Cl)cc2Cl)N1C(=O)CCl [Compound 2k, (1S,3S) Methyl 1-(2,4dichlorophenyl)-2-(2-chloroacetyl)-2,3,4,9-tetrahydro-1H-β-carboline-3-carboxylate]	55	IC50 [1, 2]: 0.38 µM
283 to 284	COC(=O)[C@@H]1Cc2c([nH]c3ccccc23)[C@H](c2ccc(Cl)c(Cl)c2)N1C(=O)CCl [Compound 2o, (1S,3S) Methyl 1-(3,4-dichlorophenyl)-2-(2-chloroacetyl)-2,3,4,9-tetrahydro-1H-β-carboline-3-carboxylate]	43	IC50 [1, 2]: > 10 µM
109 to 112	COC(=O)[C@@H]1Cc2c([nH]c3ccccc23)[C@@H](c2ccc(Cl)cc2Cl)N1C(=O)CCl [Compound 2l, (1R,3S) Methyl 1-(2,4-dichlorophenyl)-2-(2-chloroacetyl)-2,3,4,9-tetrahydro-1H-β-carboline-3-carboxylate]	98	IC50 [1, 2]: 1.24 µM; IC50 [1, 4]: 1.24 µM
283 to 285	COC(=O)[C@H]1Cc2c([nH]c3ccccc23)[C@@H](c2ccc(Cl)c(Cl)c2)N1C(=O)CCl [Compound 2m, (1R,3R) Methyl 1-(3,4-dichlorophenyl)-2-(2-chloroacetyl)-2,3,4,9-tetrahydro-1H-β-carboline-3-carboxylate]	–	IC50 [1, 2]: > 10 µM
